Key:
[1] = tested on: 4EBP1 (Thr37/46) phosphorylation (mTORC1) in MDA-MB-468 cells; assay: Cell based AlphaLISA assay, mTOR kinase cellular assay: inhibition of p-4E-BP1 (T37/46) in MDA-MB-468 cells; conditions: Homo sapiens, read-out: pIC50 for Inhibition of mTORC1 and mTORC2 Substarte Phosphorylation p-4E-BP1-(T37/46) (converted)
Description: (§1) Cell Based AlphaLISA Assays for Determining IC50 For Inhibition of P-Akt (S473), P-4E-BP1 (T37/46), and P-P70S6K (T389) in MDA-MB-468 Cells
(§2) mTOR Kinase Cellular Assay
(§3) To measure functional activity of mTORC1 and mTORC2 in cells the phosphorylation of 4EBP1 (Thr37/46) and P70S6K (Thr389), and AKT1/2/3 (Ser473) was monitored using AlphaLisa SureFire Ultra Kits (Perkin Elmer). MDA-MB-468 cells (ATCC® HTB-132) were cultured in 96-well tissue culture plates and treated with compounds in the disclosure at concentrations varying from 0.017-1,000 nM for two to four hours at 37° C. Incubations were terminated by removal of the assay buffer and addition of lysis buffer provided with the assay kit. Samples were processed according to the manufacturer's instructions. The Alpha signal from the respective phosphoproteins was measured in duplicate using a microplate reader (Envision, Perkin-Elmer or Spectramax M5, Molecular Devices). Inhibitor concentration response curves were analyzed using normalized IC50 regression curve fitting with control based normalization.

[2] = tested on: AKT1/2/3 (Ser473) phosphorylation (mTORC2) in MDA-MB-468 cells; assay: Cell based AlphaLISA assay, mTOR kinase cellular assay: inhibition of p-Akt (S473) in MDA-MB-468 cells; conditions: Homo sapiens, read-out: pIC50 for Inhibition of mTORC1 and mTORC2 Substarte Phosphorylation p-AKT1/2/3-(S473) (converted)
Description: as §1, §2, §3

[3] = tested on: P70S6K (Thr389) phosphorylation (mTORC1) in MDA-MB-468 cells; assay: Cell based AlphaLISA assay, mTOR kinase cellular assay: inhibition of p-P70S6K (T389) in MDA-MB-468 cells; conditions: Homo sapiens, read-out: pIC50 for Inhibition of mTORC1 and mTORC2 Substarte Phosphorylation p-P70S6K-(T389) (converted)
Description: as §1, §2, §3

NRAS G12C = NRAS G12C (Homo sapiens, UniProt P01111+P62937, G12C); assay: Ras-Raf disruption / FRET / MOA assay (BRAF RBD); type: biochemical; conditions: NRAS G12C FRET data IC50, NRAS G12C
NRAS G12C, sequence (P01111 whole entry G12C): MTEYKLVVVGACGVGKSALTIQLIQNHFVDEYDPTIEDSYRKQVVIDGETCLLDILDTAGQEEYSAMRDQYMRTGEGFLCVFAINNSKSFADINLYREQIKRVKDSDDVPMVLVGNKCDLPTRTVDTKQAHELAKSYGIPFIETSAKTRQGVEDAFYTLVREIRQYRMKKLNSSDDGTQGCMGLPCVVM
NRAS G12C, sequence (P62937 whole entry): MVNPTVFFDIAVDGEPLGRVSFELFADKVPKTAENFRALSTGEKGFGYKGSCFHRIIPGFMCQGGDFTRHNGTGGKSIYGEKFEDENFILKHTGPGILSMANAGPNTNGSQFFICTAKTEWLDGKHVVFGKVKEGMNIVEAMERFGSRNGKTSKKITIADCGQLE
Outline: (§4)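 TR-FRET in 25 mM HEPES pH 7.3, 100 mM NaCl, 5 mM MgCl2, 0.1% BSA, 0.002% Tween20 with 25 μM Cyclophilin A, 12.5 nM His6-Ras-GMPPNP, 50 nM GST-BRAF RBD; compound 10-point 3-fold series from 30 μM. After 3 h at 25 °C, Eu anti-His/APC anti-GST added for 1.5 h; IC50 from ratio decrease versus DMSO.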

KRAS G13C = KRAS G13C (Homo sapiens, UniProt P01116+P62937, G13C); assay: Ras-Raf disruption / FRET / MOA assay (BRAF RBD); type: biochemical; conditions: KRAS G13C FRET data IC50, Ras-Raf disruption, with Cyclophilin A
KRAS G13C, sequence (P01116 1-169 isoform P01116-2 G13C limits assumed): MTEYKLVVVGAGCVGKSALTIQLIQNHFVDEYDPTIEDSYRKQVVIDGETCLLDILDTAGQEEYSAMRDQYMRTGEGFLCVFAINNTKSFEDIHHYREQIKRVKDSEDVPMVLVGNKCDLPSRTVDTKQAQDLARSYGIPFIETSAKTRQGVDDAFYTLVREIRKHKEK
KRAS G13C, sequence (P62937 whole entry): as the sequence (P62937 whole entry) above
Outline: as §4

NRAS WT = NRAS WT (Homo sapiens, UniProt P01111+P62937); assay: Ras-Raf disruption / FRET / MOA assay (BRAF RBD); type: biochemical
NRAS WT, sequence (P01111 whole entry): as the sequence (P01111 whole entry G12C) above, with C12G counted along it
NRAS WT, sequence (P62937 whole entry): as the sequence (P62937 whole entry) above
Outline: as §4

KRAS WT = KRAS WT (Homo sapiens, UniProt P01116+P62937); assay: Ras-Raf disruption / FRET / MOA assay (BRAF RBD); type: biochemical; conditions: KRAS WT FRET data IC50, Ras-Raf disruption, with Cyclophilin A
KRAS WT, sequence (P01116 1-169 isoform P01116-2 limits assumed): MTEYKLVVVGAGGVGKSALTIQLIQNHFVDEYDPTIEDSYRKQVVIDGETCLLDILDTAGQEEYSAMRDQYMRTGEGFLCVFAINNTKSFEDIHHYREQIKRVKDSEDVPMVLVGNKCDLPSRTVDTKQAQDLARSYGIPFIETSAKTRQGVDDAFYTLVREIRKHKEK
KRAS WT, sequence (P62937 whole entry): as the sequence (P62937 whole entry) above
Outline: as §4

KRAS G12V = KRAS G12V (Homo sapiens, UniProt P01116+P62937, G12V); assay: Ras-Raf disruption / FRET / MOA assay (BRAF RBD); type: biochemical; conditions: KRAS G12V FRET data IC50, Ras-Raf disruption, with Cyclophilin A
KRAS G12V, sequence (P01116 1-169 isoform P01116-2 G12V limits assumed): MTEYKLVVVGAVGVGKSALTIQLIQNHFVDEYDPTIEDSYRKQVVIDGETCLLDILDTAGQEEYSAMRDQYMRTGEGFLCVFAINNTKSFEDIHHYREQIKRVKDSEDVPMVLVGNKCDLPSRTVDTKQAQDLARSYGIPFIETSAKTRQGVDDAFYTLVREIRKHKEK
KRAS G12V, sequence (P62937 whole entry): as the sequence (P62937 whole entry) above
Outline: as §4

NRAS Q61R = NRAS Q61R (Homo sapiens, UniProt P01111+P62937, Q61R); assay: Ras-Raf disruption / FRET / MOA assay (BRAF RBD); type: biochemical
NRAS Q61R, sequence (P01111 whole entry Q61R): as the sequence (P01111 whole entry G12C) above, with C12G, Q61R counted along it
NRAS Q61R, sequence (P62937 whole entry): as the sequence (P62937 whole entry) above
Outline: as §4

KRAS G12S = KRAS G12S (Homo sapiens, UniProt P01116+P62937, G12S); assay: Ras-Raf disruption / FRET / MOA assay (BRAF RBD); type: biochemical; conditions: KRAS G12S FRET data IC50, Ras-Raf disruption, with Cyclophilin A
KRAS G12S, sequence (P01116 1-169 isoform P01116-2 G12S limits assumed): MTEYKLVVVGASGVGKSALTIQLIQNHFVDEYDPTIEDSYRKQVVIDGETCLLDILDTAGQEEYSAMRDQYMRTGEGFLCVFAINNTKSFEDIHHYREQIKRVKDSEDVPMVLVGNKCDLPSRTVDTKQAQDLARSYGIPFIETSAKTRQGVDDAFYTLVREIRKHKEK
KRAS G12S, sequence (P62937 whole entry): as the sequence (P62937 whole entry) above
Outline: as §4

KRAS Q61H = KRAS Q61H (Homo sapiens, UniProt P01116+P62937, Q61H); assay: Ras-Raf disruption / FRET / MOA assay (BRAF RBD); type: biochemical
KRAS Q61H, sequence (P01116 1-169 isoform P01116-2 Q61H limits assumed): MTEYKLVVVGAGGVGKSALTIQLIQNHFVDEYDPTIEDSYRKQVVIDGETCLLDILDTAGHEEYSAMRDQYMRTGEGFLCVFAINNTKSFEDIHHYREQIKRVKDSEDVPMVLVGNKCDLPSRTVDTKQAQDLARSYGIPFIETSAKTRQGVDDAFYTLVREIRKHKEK
KRAS Q61H, sequence (P62937 whole entry): as the sequence (P62937 whole entry) above
Outline: as §4

NRAS Q61K = NRAS Q61K (Homo sapiens, UniProt P01111+P62937, Q61K); assay: Ras-Raf disruption / FRET / MOA assay (BRAF RBD); type: biochemical
NRAS Q61K, sequence (P01111 whole entry Q61K): as the sequence (P01111 whole entry G12C) above, with C12G, Q61K counted along it
NRAS Q61K, sequence (P62937 whole entry): as the sequence (P62937 whole entry) above
Outline: as §4

KRAS G12D = KRAS G12D (Homo sapiens, UniProt P01116+P62937, G12D); assay: Ras-Raf disruption / FRET / MOA assay (BRAF RBD); type: biochemical; conditions: KRAS G12D FRET data IC50, Ras-Raf disruption, with Cyclophilin A
KRAS G12D, sequence (P01116 1-169 isoform P01116-2 G12D limits assumed): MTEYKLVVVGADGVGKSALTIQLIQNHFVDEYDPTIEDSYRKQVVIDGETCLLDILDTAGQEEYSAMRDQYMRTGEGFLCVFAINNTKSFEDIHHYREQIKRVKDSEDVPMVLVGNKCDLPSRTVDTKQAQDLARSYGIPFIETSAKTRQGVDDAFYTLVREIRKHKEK
KRAS G12D, sequence (P62937 whole entry): as the sequence (P62937 whole entry) above
Outline: as §4

KRAS G13D = KRAS G13D (Homo sapiens, UniProt P01116+P62937, G13D); assay: Ras-Raf disruption / FRET / MOA assay (BRAF RBD); type: biochemical; conditions: KRAS G13D FRET data IC50, Ras-Raf disruption, with Cyclophilin A
KRAS G13D, sequence (P01116 1-169 isoform P01116-2 G13D limits assumed): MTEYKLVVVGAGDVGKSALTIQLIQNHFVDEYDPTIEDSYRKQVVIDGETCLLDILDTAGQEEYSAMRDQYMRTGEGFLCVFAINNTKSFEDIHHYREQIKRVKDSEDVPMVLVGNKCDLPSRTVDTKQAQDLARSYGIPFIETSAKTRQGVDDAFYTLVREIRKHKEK
KRAS G13D, sequence (P62937 whole entry): as the sequence (P62937 whole entry) above
Outline: as §4

AsPC-1 (K-Ras G12D) [4] = assay: Potency assay: pERK; type: cell-based; conditions: Homo sapiens, ASPC1, read-out: pERK EC50
AsPC-1 (K-Ras G12D) [5] = assay: CellTiter-Glo cell viability assay; type: cell-based; conditions: Homo sapiens, ASPC1, 120 h, read-out: AsPC-1 Cell Viability assay data IC50, K-Ras G12D, 5-day treatment
Outline: (§5)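 Test compounds were dispensed directly onto seeded cells, and on day 5 plates were brought to room temperature for about 30 minutes before CellTiter-Glo luminescence was read. Signals were expressed as percent of the mean DMSO control and fitted with a four-parameter logistic model.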

NCI-H358 (K-Ras G12C) = assay: CellTiter-Glo cell viability assay; type: cell-based; conditions: Homo sapiens, NCI-H358, 120 h, read-out: H358 Cell Viability assay data IC50, K-Ras G12C, 5-day treatment
Outline: as §5

KRAS G12C = KRAS G12C (Homo sapiens, UniProt P01116+P62937, G12C); assay: Ras-Raf disruption / FRET / MOA assay (BRAF RBD); type: biochemical; conditions: KRAS G12C FRET data IC50, Ras-Raf disruption, with Cyclophilin A
KRAS G12C, sequence (P01116 1-169 isoform P01116-2 G12C limits assumed): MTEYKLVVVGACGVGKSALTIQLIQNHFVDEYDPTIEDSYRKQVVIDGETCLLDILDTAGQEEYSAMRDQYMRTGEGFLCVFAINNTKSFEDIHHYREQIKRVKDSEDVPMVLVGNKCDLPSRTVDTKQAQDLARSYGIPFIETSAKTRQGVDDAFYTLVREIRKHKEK
KRAS G12C, sequence (P62937 whole entry): as the sequence (P62937 whole entry) above
Outline: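 His6-K-Ras G12C-GMPPNP (12.5 nM), GST-BRAF RBD (50 nM) and tagless Cyclophilin A (25 μM) incubated 3 h at 25 °C with compound (10-point 3-fold series from 30 μM), pH 7.3 HEPES buffer. Anti-His Eu/anti-GST APC added for 1.5 h; decreased TR-FRET ratio vs DMSO gives IC50.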

SMILES: CO[C@H]1C[C@@H]2CC[C@@H](C)[C@@](O)(O2)C(=O)C(=O)N2CCCC[C@H]2C(=O)O[C@H]([C@H](C)C[C@@H]2CC[C@@H](OC(=O)NCCOCCOCCOCCOCCOCCOCCOCCOCCC(=O)N3CCc4cc(Cn5nc(-c6ccc7oc(N)nc7c6)c6c(N)ncnc65)ccc4C3)[C@H](OC)C2)CC(=O)[C@H](C)/C=C(\C)[C@@H](O)[C@@H](OC)C(=O)[C@H](C)C[C@H](C)/C=C/C=C/C=C/1C [Example 2]
- IC50 [1]: ≤ 3.16 nM
- IC50 [2]: 3.16 to 31.6 nM
- IC50 [3]: ≤ 1 nM

SMILES: CO[C@H]1C[C@@H]2CC[C@@H](C)[C@@](O)(O2)C(=O)C(=O)N2CCCC[C@H]2C(=O)O[C@H]([C@H](C)C[C@@H]2CC[C@@H](OC(=O)NCCOCCOCCOCCOCCC(=O)NCCOCCOCCOCCOCCC(=O)N3CCc4cc(Cn5nc(-c6ccc7oc(N)nc7c6)c6c(N)ncnc65)ccc4C3)[C@H](OC)C2)CC(=O)[C@H](C)/C=C(\C)[C@@H](O)[C@@H](OC)C(=O)[C@H](C)C[C@H](C)/C=C/C=C/C=C/1C [Example 15]
- IC50 [1]: ≤ 3.16 nM
- IC50 [2]: 3.16 to 31.6 nM
- IC50 [3]: ≤ 1 nM

SMILES: CO[C@H]1C[C@@H]2CC[C@@H](C)[C@@](O)(O2)C(=O)C(=O)N2CCCC[C@H]2C(=O)O[C@H]([C@H](C)C[C@@H]2CC[C@@H](OC(=O)NCCOCCOCCOCCOCCC(=O)NCCOCCOCCOCCOCCC(=O)N3CCc4cc(Cn5nc(-c6ccc7oc(N)nc7c6)c6c(N)ncnc65)ccc4C3)[C@H](OC)C2)C[C@@H](O)[C@H](C)/C=C(\C)[C@@H](O)[C@@H](OC)C(=O)[C@H](C)C[C@H](C)/C=C/C=C/C=C/1C [Example 16]
- IC50 [1]: ≤ 3.16 nM
- IC50 [2]: ≤ 3.16 nM
- IC50 [3]: ≤ 1 nM

SMILES: CO[C@H]1C[C@@H]2CC[C@@H](C)[C@@](O)(O2)C(=O)C(=O)N2CCCC[C@H]2C(=O)O[C@H]([C@H](C)C[C@@H]2CC[C@@H](OC(=O)NCCOCCOCCOCCOCCC(=O)NCCOCCOCCOCCOCCC(=O)N3CCc4cc(Cn5nc(-c6ccc7oc(N)nc7c6)c6c(N)ncnc65)ccc4C3)[C@H](OC)C2)C[C@@H](OC)[C@H](C)/C=C(\C)[C@@H](O)[C@@H](OC)C(=O)[C@H](C)C[C@H](C)/C=C/C=C/C=C/1C [Example 17]
- IC50 [1]: ≤ 3.16 nM
- IC50 [2]: 3.16 to 31.6 nM
- IC50 [3]: ≤ 1 nM

SMILES: CO[C@H]1C[C@@H]2CC[C@@H](C)[C@@](O)(O2)C(=O)C(=O)N2CCCC[C@H]2C(=O)O[C@H]([C@H](C)C[C@@H]2CC[C@@H](OC(=O)NCCOCCOCCOCCOCCC(=O)NCCOCCOCCOCCOCCC(=O)NCCCCn3nc(-c4cnc5[nH]ccc5c4)c4c(N)ncnc43)[C@H](OC)C2)CC(=O)[C@H](C)/C=C(\C)[C@@H](O)[C@@H](OC)C(=O)[C@H](C)C[C@H](C)/C=C/C=C/C=C/1C [Example 18]
- IC50 [1]: 3.16 to 31.6 nM
- IC50 [2]: 31.6 to 1000 nM
- IC50 [3]: ≤ 1 nM

SMILES: CO[C@H]1C[C@@H]2CC[C@@H](C)[C@@](O)(O2)C(=O)C(=O)N2CCCC[C@H]2C(=O)O[C@H]([C@H](C)C[C@@H]2CC[C@@H](OC(=O)NCCOCCOCCOCCOCCOCCOCCOCCOCCC(=O)N3CCC(n4nc(-c5ccc6oc(N)nc6c5)c5c(N)ncnc54)CC3)[C@H](OC)C2)CC(=O)[C@H](C)/C=C(\C)[C@@H](O)[C@@H](OC)C(=O)[C@H](C)C[C@H](C)/C=C/C=C/C=C/1C [Example 19]
- IC50 [1]: ≤ 3.16 nM
- IC50 [2]: ≤ 3.16 nM
- IC50 [3]: ≤ 1 nM

SMILES: CO[C@H]1C[C@@H]2CC[C@@H](C)[C@@](O)(O2)C(=O)C(=O)N2CCCC[C@H]2C(=O)O[C@H]([C@H](C)C[C@@H]2CC[C@@H](OC(=O)NCc3cnc(N4CCN(C(=O)CCOCCN5CCN(c6ncc(C(=O)N7CCc8cc(Cn9nc(-c%10cnc%11[nH]ccc%11c%10)c%10c(N)ncnc%109)ccc8C7)cn6)CC5)CC4)nc3)[C@H](OC)C2)CC(=O)[C@H](C)/C=C(\C)[C@@H](O)[C@@H](OC)C(=O)[C@H](C)C[C@H](C)/C=C/C=C/C=C/1C [Example 52]
- IC50 [1]: ≤ 3.16 nM
- IC50 [3]: ≤ 1 nM

SMILES: CO[C@H]1C[C@@H]2CC[C@@H](C)[C@@](O)(O2)C(=O)C(=O)N2CCCC[C@H]2C(=O)O[C@H]([C@H](C)C[C@@H]2CC[C@@H](OC(=O)NCc3cnc(N4CCN(c5ncc(C(=O)N6CCN(c7ncc(C(=O)N8CCc9cc(Cn%10nc(-c%11cnc%12[nH]ccc%12c%11)c%11c(N)ncnc%11%10)ccc9C8)cn7)CC6)cn5)CC4)nc3)[C@H](OC)C2)CC(=O)[C@H](C)/C=C(\C)[C@@H](O)[C@@H](OC)C(=O)[C@H](C)C[C@H](C)/C=C/C=C/C=C/1C [Example 61]
- IC50 [2]: > 1000 nM
- IC50 [3]: ≤ 1 nM

SMILES: CCn1c(-c2cccnc2[C@H](C)OC)c2c3cc(ccc31)-c1cc(O)cc(c1)C[C@H](NC(=O)[C@H](C(C)C)N(C)C(=O)CN(C)C(=O)[C@H]1N[C@H]1C1CCC1)C(=O)N1CCC[C@H](N1)C(=O)OCC(C)(C)C2 [Example 288]
- IC50 (NRAS G12C): 10 to 100 nM
- IC50 (KRAS G13C): 10 to 100 nM
- IC50 (NRAS WT): 10 to 100 nM
- IC50 (KRAS WT): 10 to 100 nM
- IC50 (KRAS G12V): 10 to 100 nM
- IC50 (NRAS Q61R): 100 to 1000 nM
- IC50 (KRAS G12S): 10 to 100 nM
- IC50 (KRAS Q61H): 10 to 100 nM
- IC50 (NRAS Q61K): 100 to 1000 nM
- IC50 (KRAS G12D): 100 to 1000 nM
- IC50 (KRAS G13D): 10 to 100 nM
- EC50 (AsPC-1 (K-Ras G12D) [4]): < 5 µM
- IC50 (AsPC-1 (K-Ras G12D) [5]): 100 to 1000 nM
- IC50 (NCI-H358 (K-Ras G12C)): 10 to 100 nM
- IC50 (KRAS G12C): 10 to 100 nM

From patent publication US20230233569A1 (Revolution Medicines, Inc., priority 2020, published 2023)
